# Assay results from patent US9101618B2, “Method for treating and/or preventing neurodegenerative disease by adiponectin receptor agonist” (TOKYO METROPOLITAN INSTITUTE OF MEDICAL SCIENCE, priority 2011, dated 2015).
# Where a SMILES comes first, the peptide text is derived from it. The star is where a group is joined. Cbz = O=C(OCc1ccccc1)*
# B1: gAPN: Globular adiponectin (Prospec); adiponectin isoform whose N-terminal collagen-like domain has been cut by protease (protein, listed as Homo sapiens)
# chain: PGEGAYVYRSAFSVGLETYVTIPNMPIRFTKIFYNQQNHYDGSTGKFHCNIPGLYYFAYHITVYMKDVKVSLFKKDKAMLFTYDQYQENNVDQASGSVLLHLEVGDQVWLQVYGEGERNGLYADNDNDSTFTGFLLYHDTN
# modifications: human adiponectin globular domain
# notes: Globular adiponectin (Prospec); adiponectin isoform whose N-terminal collagen-like domain has been cut by protease
# Experiments:
# [1] = tested on: B103 neuroblastoma cells (α (alpha)S); assay: Effect of adiponectin siRNA on aggregate state of α-synuclein (western blotting of soluble fractions); format: cell-based, rat; conditions: B103 neuroblastoma cells (αS), siRNA transduced, cultivated 72 hours, western blot
# Description: (§1) Rat adiponectin sense strand RNA: 5′-CAAUGACUCUACAUUUACAtt-3′ (SEQ. No. 15), antisense strand RNA: 5′-UGUAAAUGUAGAGUCAUUGtt-3′ (SEQ. No. 16), sense strand RNA of random sequence in control experiment: 5′-UCUUAAUCGCGUAUAAGGCtt-3′ (SEQ. No. 17) and antisense strand RNA: 5′-GCCUUAUACGCGAUUAAGAtt-3′ (SEQ. No. 18) were prepared utilizing Takara siRNA Design Support System (http://www.takara-bio.co.jp/rnai/) (Takara Bio Inc.). The B103 neuroblastoma cells (α (alpha)S) and the B103 neuroblastoma cells (vector) for the control experiment were cultured using a commercially available 6-well plate, and were transfected using Lipofectamine 2000 (Invitrogen, Life Technologies Japan Ltd.) in a state of 30-50% confluence. After performing transfection for six hours, a medium was replaced with a DMEM containing 10% FBS. After performing cultivation for 24 hours, the medium was then replaced with a serum-free DMEM medium so as to avoid effects of adiponectin. After performing cultivation for another three days, transfected B103 neuroblastoma cells were collected so as to be subjected to a detection of an aggregate state of α (alpha)-synuclein and a measurement of proteasomal activity. […]
# Extraction of each soluble fraction and quantification of protein in each soluble fraction by western blotting were performed in accordance with procedures similar to those of example 1 through example 3.
# B103 neuroblastoma cells [2] = assay: Measurement of proteasomal activity in siRNA-transduced cells; format: cell-based, rat; conditions: compared to cells transduced with siRNA of random sequence
# Description: as §1, with “FBS.” for “FBS. After performing cultivation for 24 hours, the medium was then replaced with a serum-free DMEM medium so as to avoid effects of adiponectin. After performing cultivation for another three days, transfected B103 neuroblastoma cells were collected so as to be subjected to a detection of an aggregate state of α (alpha)-synuclein and a measurement of proteasomal activity.”
# siRNA-transduced B103 neuroblastoma cells were collected with HEPES buffer (50 mM HEPES (pH 7.4), 10 mM EDTA, 10 mM NaCl). […] Protein concentrations were measured, and […] thereof was dissolved in HEPES buffer containing 40 μM of benzyloxycarbonyl-Leu-Leu-Glu-amidomethylcoumarin fluorescent proteasome substrate (Chemicon, Japan Millipore Corporation). Proteasomal activity was calculated as follows. That is, a disintegrated amount of substrate was measured by Berthold Mithras LB940 microplate reader (Berthold Japan co. ltd.), according to time for one hour and at 37° C. […]
# [3] = tested on: B103 neuroblastoma cells (α (alpha)S); assay: Thioflavin T staining of adiponectin siRNA-transduced cells; format: cell-based, rat; conditions: α-synuclein expressing neuroblastoma cells with adiponectin expression suppressed
# Description: as §1, with “activity. Further, transfection to B103 neuroblastoma cells for thioflavin T staining were carried out on a polylysine-coated cover glass.” for “activity.”
# B103 neuroblastoma cells [4] = assay: Induction of adiponectin mRNA expression by proteasome inhibition (RT-PCR); format: cell-based, rat; conditions: 10 μM, six hours, regardless of the presence of α-synuclein expression
# Description: RT-PCR was performed in accordance with a method of Fujita et al. (Fujita et al., Nat. Commun. 1:110 (2010)). Total RNA was extracted from the frozen brain samples of the α (alpha)S tg mice and the non tg mice by ISOGEN (NIPPON GENE CO., LTD.), followed by performing DNase (DNase 1, Invitrogen, Life Technologies Japan Ltd.) treatment at 37° C. for 30 min. Here, cDNA was synthesized from the total RNA of 2.5 μg, using Superscript III First-Strand Synthesis system (Invitrogen, Life Technologies Japan Ltd.).
# A reaction condition of PCR was as follows. That is, PCR was at first performed at 94° C. for 5 min, followed by repeating 35 times a cycle of: 95° C. for 30 sec; 55° C. for 30 sec; and 72° C. for 60 sec. Subsequently, PCR was further performed at 72° C. for 10 min before reaching a stationary state and being left standing at 4° C. PCR products were electrophoresed in 1.2% agarose gel. With regard to an mRNA amount of each gene, concentrations of ethidium bromide-stained bands of the PCR products were quantitated by densitometer (ATTO). mRNA amounts of adiponectin were standardized by mRNA amounts of cyclophilin A.
# MG132 (Calbiochem, Merck & Co., Inc.) was used as a proteasome inhibitor. […] Six hours later, the aforementioned cells were collected, and expression of adiponectin mRNA was measured by RT-PCR.
# GSK-3β (beta) = assay: Addition of p38 MAPK inhibitor and AMPK inhibitor: phospho-GSK-3β western blotting; format: cell-based, rat; conditions: 5 μM inhibitor 10 min, then adiponectin 1 μg/mL 30 min
# Description: The aforementioned B103 neuroblastoma cells (α (alpha)S) were inoculated on the 6-well plate and cultured to a state of about 80-90% confluence. After washing with PBS, the aforementioned cells were further cultured for 10 min in an inhibition test medium prepared by adding either 5 μM p38 MAPK inhibitor (SB203580, Promega) or 5 μM AMPK inhibitor (Compound C, Calbiochem) to a serum-free medium. As a control, DMSO was added to a serum-free medium instead of the aforementioned inhibitors. Later, either recombinant human adiponectin (1 μg/mL, trimer, PROSPEC) or PBS was added so as to culture the cells for 30 min. The cells collected were then lysed with the aforementioned cell lysis solution. Supernatants were collected after performing centrifugation at 100,000×g for 30 min, and then subjected to western blotting. Here, western blotting was performed in accordance with the procedures described in example 1.
# When performing western blotting to evaluate signal transduction pathways, the anti-phospho-GSK-3β (beta) (Ser9) antibody (D85E12, Cell Signaling Technology), the anti-GSK-3β (beta) antibody (BD Biosciences) and the anti-β (beta)-actin mouse monoclonal antibody (C-15, Sigma-Aldrich Japan Inc.) were used as primary antibodies after being appropriately diluted. Further, the HRP labeled anti-mouse IgG antibody (DAKO) was used as a secondary antibody after being appropriately diluted.
# α (alpha)S tg mouse [5] = assay: Continuous nasal administration of globular adiponectin: immunohistochemical staining of brain; format: in vivo
# Description: (§2) An α (alpha)S tg mouse and a non tg mouse were distinguished in accordance with the method described in example 2. Globular adiponectin (gAPN) was nasally administered to the α (alpha)S tg mouse and the non tg mouse on days 0, 3, 6, 9, 12, 15, 18 and 21. Further, as a control, PBS was nasally administered to the α (alpha)S tg mouse and the non tg mouse on days 0, 3, 6, 9, 12, 15, 18 and 21. When performing nasal administration, 10 μL of the transmucosal absorption enhancer (PBS containing 5 mg/mL poly-L-arginine hydrochloride (molecular mass>70,000 (Sigma-Aldrich Japan Inc.)) was nasally administered to the mouse. Half an hour later, either 10 μL of globular adiponectin (PBS containing 1 mg/mL gAPN (Prospec)) or 10 μL of PBS was nasally administered to the mouse. On day 22 of nasal administration, the aforementioned mouse was euthanized in accordance with the method described in example 2, followed by collecting brain samples thereof. The hemispheres used for pathological analysis were immersion-fixed using 4% paraformaldehyde, followed by being embedded in paraffin. The other hemispheres used for western blotting were frozen by liquid nitrogen and stored at −80° C.
# Immunohistochemical staining was performed in a standard manner known to those skilled in the art. Briefly, thin sliced sections were prepared at a thickness of 4 μm, using the brain samples embedded in paraffin. After being deparaffinized, the thin sliced sections were placed in a 10 mM sodium citrate buffer solution (pH 6.0) to be subjected to an antigen activation treatment (95° C., 10 min) using microwave (MW). After completing the antigen activation treatment, the thin sliced sections were further treated for 15 min with methanol containing 3% hydrogen peroxide. After washing, the thin sliced sections were then subjected to blocking for 30 min, using 10% goat normal serum (Vector Laboratories, Inc.)/TBS (25 mM Tris-HCl (pH 7.5), 0.15 M NaCl). Later, the thin sliced sections were incubated overnight at 4° C. with a primary antibody (anti-α (alpha)-synuclein antibody or anti-GFAP antibody) diluted with 0.1% bovine serum albumin (BSA)/TBS. After washing, the thin sliced sections were further incubated for 20 min at room temperature with a secondary antibody (biotin labeled anti-mouse IgG antibody (Vector Laboratories, Inc.)) diluted with 0.1% BSA/TBS. When performing staining, there were used ABC kit (Vector Laboratories, Inc.) and 3,3′-diaminobenzidine tetrahydrochloride (DAB). After completing staining, the thin sliced sections were observed using a microscope.
# α (alpha)S tg mouse [6] = assay: Continuous nasal administration of globular adiponectin: GFAP in surfactant insoluble fraction; format: in vivo; conditions: versus gAPN non-administration group
# Description: as §2, with “C. […]” for “C.”
# α (alpha)S tg mouse [7] = assay: Continuous nasal administration of globular adiponectin: α-synuclein aggregation in various fractions; format: in vivo; conditions: cerebral cortex, gAPN-administered group
# Description: as §2
# The TBS soluble fraction, the SDS soluble fraction and the formic acid soluble fraction were prepared from the cerebral cortex of the brain sample in accordance with the method described in example 1. […]
# [8] = nasal, days 0-21 every 3 days, brain on day 22
molecule,measurement,setting,value
"APN siRNA: Rat adiponectin siRNA, sense strand SEQ. No. 15, antisense strand SEQ. No. 16 (sense CAAUGACUCUACAUUUACATT; antisense UGUAAAUGUAGAGUCAUUGTT; RNA strands with tt 3' overhangs, overhang chemistry not given here, further chemistry not given here)",α-synuclein in the formic acid soluble fraction,[1],also detected
same,proteasomal activity,B103 neuroblastoma cells [2],low
same,thioflavin T staining (aggregation of protein),[3],thioflavin T-positive
CC(C)C[C@@H](C=O)NC(=O)[C@H](CC(C)C)NC(=O)[C@H](CC(C)C)NC(=O)OCc1ccccc1 [MG132] (Cbz-Leu-Leu-Leu-aldehyde),induction of adiponectin expression (mRNA),B103 neuroblastoma cells [4],increased
C[S+]([O-])c1ccc(-c2nc(-c3ccncc3)c(-c3ccc(F)cc3)[nH]2)cc1 (stereo not drawn) [SB203580],phosphorylated GSK-3β in surfactant soluble fraction,GSK-3β (beta),not detected
c1cc(-c2cnn3cc(-c4ccc(OCCN5CCCCC5)cc4)cnc23)ccn1 [Compound C],phosphorylated GSK-3β in surfactant soluble fraction,GSK-3β (beta),detected
B1,adverse effects,α (alpha)S tg mouse [5]; continuous nasal administration,not observed particularly
same,growth of astrocyte in cerebral cortex,α (alpha)S tg mouse [5]; [8],hardly detected
same,α-synuclein aggregates in olfactory bulb,α (alpha)S tg mouse [5]; [8],hardly detected
same,α-synuclein aggregates in thalamus,α (alpha)S tg mouse [5]; [8],hardly detected
same,GFAP in surfactant insoluble fraction,α (alpha)S tg mouse [6],observed less
same,amount of α-synuclein aggregates in SDS soluble fraction,α (alpha)S tg mouse [7],decreased significantly
